Experiment: Adverse events (CTCAE 4.0) under apatinib plus gefitinib
Type: in vivo, human
[1] = Apatinib 500 mg Cohort (n = 6), with gefitinib 250 mg, treatment‐related AE, patients (%)

In the case of N#CC1(c2ccc(NC(=O)c3cccnc3NCc3ccncc3)cc2)CCCC1 [Apatinib], the “Abdominal distention, ALL” value [1] is reported as 0, the “Abdominal distention, Grade 1–2” value [1] is reported as 0 and the “Abdominal distention, Grade 3–4” value [1] is reported as 0. The “Blurred vision, ALL” value [1] was 1 (16.7%), the “Blurred vision, Grade 1–2” value [1] was 1 (16.7%) and the “Blurred vision, Grade 3–4” value [1] was 0. The “Cough, ALL” value [1] was 1 (16.7%), the “Cough, Grade 1–2” value [1] was 1 (16.7%) and the “Cough, Grade 3–4” value [1] was 0. The “Diarrhea, ALL” value [1] was 4 (66.7%), the “Diarrhea, Grade 1–2” value [1] was 3 (50.0%) and the “Diarrhea, Grade 3–4” value [1] was 1 (16.7%). For the same molecule, the “Dizziness, ALL” value [1] was 1 (16.7%), the “Dizziness, Grade 1–2” value [1] was 1 (16.7%) and the “Dizziness, Grade 3–4” value [1] was 0. For the same molecule, the “Dry skin, ALL” value [1] was 1 (16.7%), the “Dry skin, Grade 1–2” value [1] was 1 (16.7%) and the “Dry skin, Grade 3–4” value [1] was 0. The “Dysgeusia, ALL” value [1] was 0, the “Dysgeusia, Grade 1–2” value [1] was 0 and the “Dysgeusia, Grade 3–4” value [1] was 0. For the same molecule, the “Eczema, ALL” value [1] was 0, the “Eczema, Grade 1–2” value [1] was 0 and the “Eczema, Grade 3–4” value [1] was 0. For the same molecule, the “Elevated ALT, ALL” value [1] was 5 (83.3%), the “Elevated ALT, Grade 1–2” value [1] was 4 (66.7%) and the “Elevated ALT, Grade 3–4” value [1] was 1 (16.7%). For the same molecule, the “Elevated AST, ALL” value [1] was 3 (50.0%), the “Elevated AST, Grade 1–2” value [1] was 3 (50%) and the “Elevated AST, Grade 3–4” value [1] was 0. The “Epistaxis, ALL” value [1] was 1 (16.7%), the “Epistaxis, Grade 1–2” value [1] was 1 (16.7%) and the “Epistaxis, Grade 3–4” value [1] was 0. For the same molecule, the “Fatigue, ALL” value [1] was 1 (16.7%), the “Fatigue, Grade 1–2” value [1] was 1 (16.7%) and the “Fatigue, Grade 3–4” value [1] was 0. For the same molecule, the “Gastrointestinal bleeding, ALL” value [1] was 0, the “Gastrointestinal bleeding, Grade 1–2” value [1] was 0 and the “Gastrointestinal bleeding, Grade 3–4” value [1] was 0. The “HFSR, ALL” value [1] was 2 (33.3%), the “HFSR, Grade 1–2” value [1] was 2 (33.3%) and the “HFSR, Grade 3–4” value [1] was 0. For the same molecule, the “Haematuria, ALL” value [1] was 0, the “Haematuria, Grade 1–2” value [1] was 0 and the “Haematuria, Grade 3–4” value [1] was 0. For the same molecule, the “Headache, ALL” value [1] was 0, the “Headache, Grade 1–2” value [1] was 0 and the “Headache, Grade 3–4” value [1] was 0. The “Hematochezia, ALL” value [1] was 0, the “Hematochezia, Grade 1–2” value [1] was 0 and the “Hematochezia, Grade 3–4” value [1] was 0. The “Hypertension, ALL” value [1] was 4 (66.7%), the “Hypertension, Grade 1–2” value [1] was 3 (50.0%) and the “Hypertension, Grade 3–4” value [1] was 1 (16.7%). The “Increased bilirubin, ALL” value [1] was 1 (16.7%), the “Increased bilirubin, Grade 1–2” value [1] was 1 (16.7%) and the “Increased bilirubin, Grade 3–4” value [1] was 0. The “Increased creatinine, ALL” value [1] was 1 (16.7%), the “Increased creatinine, Grade 1–2” value [1] was 1 (16.7%) and the “Increased creatinine, Grade 3–4” value [1] was 0. The “Leukopenia, ALL” value [1] was 1 (16.7%), the “Leukopenia, Grade 1–2” value [1] was 1 (16.7%) and the “Leukopenia, Grade 3–4” value [1] was 0. The “Nausea, ALL” value [1] was 3 (50.0%), the “Nausea, Grade 1–2” value [1] was 3 (50.0%) and the “Nausea, Grade 3–4” value [1] was 0. The “Neutropenia, ALL” value [1] was 1 (16.7%), the “Neutropenia, Grade 1–2” value [1] was 1 (16.7%) and the “Neutropenia, Grade 3–4” value [1] was 0. The “Oulorrhagia, ALL” value [1] was 0, the “Oulorrhagia, Grade 1–2” value [1] was 0 and the “Oulorrhagia, Grade 3–4” value [1] was 0. For the same molecule, the “Paronychia, ALL” value [1] was 0, the “Paronychia, Grade 1–2” value [1] was 0 and the “Paronychia, Grade 3–4” value [1] was 0. For the same molecule, the “Periodontitis, ALL” value [1] was 0, the “Periodontitis, Grade 1–2” value [1] was 0 and the “Periodontitis, Grade 3–4” value [1] was 0. The “Pharyngalgia, ALL” value [1] was 0, the “Pharyngalgia, Grade 1–2” value [1] was 0 and the “Pharyngalgia, Grade 3–4” value [1] was 0. For the same molecule, the “Pneumonia (non‐interstitial), ALL” value [1] was 0, the “Pneumonia (non‐interstitial), Grade 1–2” value [1] was 0 and the “Pneumonia (non‐interstitial), Grade 3–4” value [1] was 0. The “Proteinuria, ALL” value [1] was 4 (66.7%), the “Proteinuria, Grade 1–2” value [1] was 2 (33.3%) and the “Proteinuria, Grade 3–4” value [1] was 2 (33.3%). The “Pruritus, ALL” value [1] was 1 (16.7%), the “Pruritus, Grade 1–2” value [1] was 1 (16.7%) and the “Pruritus, Grade 3–4” value [1] was 0. The “Rash, ALL” value [1] was 6 (100%), the “Rash, Grade 1–2” value [1] was 6 (100%) and the “Rash, Grade 3–4” value [1] was 0. The “Stomatitis, ALL” value [1] was 0, the “Stomatitis, Grade 1–2” value [1] was 0 and the “Stomatitis, Grade 3–4” value [1] was 0. For the same molecule, the “Thrombocytopenia, ALL” value [1] was 2 (33.3%), the “Thrombocytopenia, Grade 1–2” value [1] was 2 (33.3%) and the “Thrombocytopenia, Grade 3–4” value [1] was 0. For the same molecule, the “Trachyphonia, ALL” value [1] was 1 (16.7%), the “Trachyphonia, Grade 1–2” value [1] was 1 (16.7%) and the “Trachyphonia, Grade 3–4” value [1] was 0. The “Vomiting, ALL” value [1] was 2 (33.3%), the “Vomiting, Grade 1–2” value [1] was 2 (33.3%) and the “Vomiting, Grade 3–4” value [1] was 0. For the same molecule, the “Serious Adverse Event” value (Patient 007, Apatinib Dose 500 mg, Discontinuation, Correlation with Apatinib Yes, Remission) was “Hypertension”.

— article PMC7403827 (Clinical and Translational Medicine, 2020)
